Data set [1] addresses T1, β1-adrenoceptor (Rattus norvegicus, UniProt P18090).
T1 construct: Atria of male SD rats (250 to 400 g in body weight) were isolated; from tissue; host or cells: isolated rat atria
The data set is described as follows: β1-adrenoceptor stimulating effects: increase of heart rate in isolated rat atria (Magnus method). More on the design: species or system SD rats. The procedure:
The experiment for measuring β1-adrenoceptor stimulating effects
Atria of male SD rats (250 to 400 g in body weight) were isolated and the experiment was conducted according to the Magnus method. The preparations with a tension of 0.5 g were exposed to Krebs-Henseleit solution maintained at 37° C. and gassed with a mixture of 95% oxygen and 5% carbon dioxide. The cardiac contractility was measured isometrically with a force-displacement transducer, and heart rate was recorded on a rectigram via a tachometer, and the drug was added cumulatively.

The target in data set [2] is T2, β2-adrenoceptor (Rattus norvegicus, UniProt P10608).
T2 construct: Uteri of pregnant SD rats (pregnancy day 21) were isolated and longitudinal uterine muscle strips; from tissue; host or cells: longitudinal uterine muscle strips of pregnant SD rats
The data set is described as follows: β2-adrenoceptor stimulating effects: inhibition of spontaneous contraction of isolated pregnant rat uterus (Magnus method). The following applies: isolated uterine muscle strips of pregnant SD rats (pregnancy day 21). On the procedure:
The experiment for measuring β2-adrenoceptor stimulating effects
Uteri of pregnant SD rats (pregnancy day 21) were isolated and longitudinal uterine muscle strips of approximately 15 mm in length and approximately 5 mm in width free from the basal plate were prepared. The experiment was conducted according to the Magnus method. The preparations with a tension of 0.5 g were exposed to Locke-Ringer solution maintained at 37° C. and gassed with a mixture of 95% oxygen and 5% carbon dioxide. Spontaneous contractions of myometrium were measured isometrically with a force-displacement transducer and recorded on a rectigram. The drug was added cumulatively to the Magnus bath every 5 minutes.

Data set [3] addresses β3-adrenoceptor (Mustela putorius furo, UniProt M3YEU4). Description: β3-adrenoceptor stimulating effects: relaxation of isolated ferret urinary bladder smooth muscle strips (Magnus method). The following applies: read-out: EC50 (molar concentration producing 50% relaxation of urinary bladder smooth muscle); isolated male ferret urinary bladder strips; 0% = maximal relaxation after 10^−5 M forskolin. The procedure:
The experiment for measuring β3-adrenoceptor stimulating effects
Urinary bladders of male ferrets (1100 to 1400 g in body weight) were isolated and urinary bladder smooth muscle strips of approximately 10 mm in length and approximately 2 mm in width were prepared. The experiment was conducted according to the Magnus method. The preparations with a tension of 1 g were exposed to Krebs-Henseleit solution maintained at 37° C. and gassed with a mixture of 95% oxygen and 5% carbon dioxide. Basal tensions of urinary bladder were measured isometrically with a force-displacement transducer and recorded on a rectigram. The drug was added cumulatively to the Magnus bath every 5 minutes. […] In this experiment, tension of urinary bladder smooth muscle before the addition of the drug was expressed as 100% and tension of maximal relaxation after the addition of 10^−5 molar concentration of forskolin was expressed as 0%.

Data set [4] deals with male ICR rats. Description: Acute toxicity test. Type of data set: in vivo. The settings on record: male ICR rats of 4 weeks age, intravenously, 250 mg/kg, during 24 hours after the administration. On the procedure: To male ICR rats of 4 weeks age was administered intravenously N-[2,6-dichloro-4-[2-[[(1S, 2R)-2-hydroxy-2-(4-hydroxyphenyl)-1-methylethyl]amino]ethyl]phenyl]aminoacetic acid at a dose of 250 mg/kg.

SMILES strings stand for the structures. Counter-ions that a name gives are not always drawn. Like-named read-outs stand apart in the source and are kept apart here.

T1 sequence (P18090 whole entry): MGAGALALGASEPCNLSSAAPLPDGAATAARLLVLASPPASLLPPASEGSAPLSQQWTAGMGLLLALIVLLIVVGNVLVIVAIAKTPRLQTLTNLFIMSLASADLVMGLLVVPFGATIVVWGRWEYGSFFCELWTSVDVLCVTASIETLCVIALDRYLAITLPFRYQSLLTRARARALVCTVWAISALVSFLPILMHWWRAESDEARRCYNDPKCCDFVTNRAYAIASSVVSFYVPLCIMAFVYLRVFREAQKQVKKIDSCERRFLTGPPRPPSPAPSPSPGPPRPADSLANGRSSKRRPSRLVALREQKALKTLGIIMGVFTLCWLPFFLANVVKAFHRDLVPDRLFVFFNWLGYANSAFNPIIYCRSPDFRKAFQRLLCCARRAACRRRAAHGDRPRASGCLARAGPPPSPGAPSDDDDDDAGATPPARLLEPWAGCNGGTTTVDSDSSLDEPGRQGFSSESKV
T2 sequence (P10608 whole entry): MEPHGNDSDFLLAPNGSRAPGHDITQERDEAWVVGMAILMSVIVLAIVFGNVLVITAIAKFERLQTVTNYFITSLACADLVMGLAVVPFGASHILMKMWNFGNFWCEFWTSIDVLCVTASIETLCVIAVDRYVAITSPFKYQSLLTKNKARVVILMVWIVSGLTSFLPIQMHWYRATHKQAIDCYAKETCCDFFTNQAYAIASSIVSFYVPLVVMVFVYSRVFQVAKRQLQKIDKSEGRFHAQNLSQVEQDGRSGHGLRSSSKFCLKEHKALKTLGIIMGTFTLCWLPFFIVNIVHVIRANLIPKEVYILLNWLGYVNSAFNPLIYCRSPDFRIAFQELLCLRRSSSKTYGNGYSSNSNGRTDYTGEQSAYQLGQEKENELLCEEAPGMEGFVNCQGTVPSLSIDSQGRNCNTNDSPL
Chain of β3-adrenoceptor (M3YEU4 entry or part of it): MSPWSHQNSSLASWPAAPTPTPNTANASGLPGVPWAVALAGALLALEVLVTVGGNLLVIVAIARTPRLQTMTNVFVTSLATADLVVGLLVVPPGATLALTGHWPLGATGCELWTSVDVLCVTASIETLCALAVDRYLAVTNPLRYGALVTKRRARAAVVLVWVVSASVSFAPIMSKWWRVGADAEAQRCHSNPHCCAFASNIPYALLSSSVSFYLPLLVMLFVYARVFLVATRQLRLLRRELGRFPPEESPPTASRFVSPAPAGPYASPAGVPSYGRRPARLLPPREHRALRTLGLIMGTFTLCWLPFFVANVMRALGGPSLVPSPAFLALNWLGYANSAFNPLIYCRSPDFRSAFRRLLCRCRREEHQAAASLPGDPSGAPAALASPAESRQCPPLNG

As for `C[C@H](NCCc1ccc(NCC(=O)O)cc1)[C@H](O)c1ccc(O)cc1` [Compound 18, N-[4-[2-[[(1S, 2R)-2-hydroxy-2-(4-hydroxyphenyl)-1-methylethyl]-amino]ethyl]phenyl]aminoacetic acid], the EC50 in data set [1] came out at 83 nM; in data set [2], 650 nM.

`C[C@H](Cc1ccc(OCC(=O)O)cc1)NC[C@H](O)c1cccc(Cl)c1` [BRL-37344, reference compound]: the EC50 in data set [1] (read-out: EC50 (molar concentration producing 50% increase of heart rate per minute), isolated male SD rat atria, 100% = increase after 10^−8 M isoproterenol) was determined as 270 nM; in data set [3] it was 1.6 nM; in data set [2] (read-out: EC50 (molar concentration producing 50% inhibition of uterine contraction)), 9 nM.

Turning to `C[C@H](NCCc1cc(Cl)c(NCC(=O)O)c(Cl)c1)[C@H](O)c1ccc(O)cc1` [Compound 17, N-[2,6-Dichloro-4-[2-[[(1S, 2R)-2-hydroxy-2-(4-hydroxyphenyl)-1-methylethyl]amino]ethyl]phenyl]aminoacetic acid], the “Death of animals (acute toxicity)” value in data set [4] is “No death of animals was observed”. In addition, the results for the EC50 in data set [1] and in data set [2] were > 100000 nM and 14000 nM, respectively.

`C[C@H](NCCc1ccc(N(C)CC(=O)O)cc1)[C@H](O)c1ccc(O)cc1` [Compound 21, N-[4-[2-[[(1S, 2R)-2-Hydroxy-2-(4-hydroxyphenyl)-1-methylethyl]-amino]ethyl]phenyl]-N-methylaminoacetic acid]: the EC50 in data set [1] worked out at 34000 nM; in data set [2] it was 1600 nM.

In the case of `CCOC(=O)CNc1c(Cl)cc(CCN[C@@H](C)[C@H](O)c2ccc(O)cc2)cc1Cl` [Compound 2, Ethyl N-[2,6-dichloro-4-[2-[[(1S, 2R)-2-hydroxy-2-(4-hydroxy-phenyl)-1-methylethyl]amino]ethyl]phenyl]aminoacetate hydrochloride], the EC50 stood at 50 nM in data set [1] and 650 nM in data set [2].

Take `C[C@H](NCCc1ccc(NCC(=O)O)c(Cl)c1)[C@H](O)c1ccc(O)cc1` [Compound 20, N-[2-Chloro-4-[2-[[(1S, 2R)-2-hydroxy-2-(4-hydroxyphenyl)-1-methylethyl]amino]ethyl]phenyl]aminoacetic acid]: the figures for the EC50 in data set [1] and in data set [2] were 23000 nM and 3300 nM, respectively.

For the compound `C[C@H](NCCc1cc(Cl)c(NCC(=O)N2CCOCC2)c(Cl)c1)[C@H](O)c1ccc(O)cc1` [Compound 32, 4-[2-[[2,6-Dichloro-4-[2-[[(1S, 2R)-2-hydroxy-2-(4-hydroxy-phenyl)-1-methylethyl]amino]ethyl]phenyl]amino]acetyl]morpholine], the EC50 was > 100000 nM in data set [1] and 1700 nM in data set [2].

Consider `C[C@H](NCCc1cc(Cl)c(NCC(=O)N(C)C)c(Cl)c1)[C@H](O)c1ccc(O)cc1` [Compound 16, 2-[[2,6-Dichloro-4-[2-[[(1S, 2R)-2-hydroxy-2-(4-hydroxyphenyl)-1-methylethyl]amino]ethyl]phenyl]amino]-N, N-dimethylacetamide hydrochloride], for which the EC50 in data set [1] was > 100000 nM.

As to `C[C@H](NCCc1cc(Br)c(NCC(=O)O)c(Br)c1)[C@H](O)c1ccc(O)cc1` [Compound 29, N-[2,6-Dibromo-4-[2-[[(1S, 2R)-2-hydroxy-2-(4-hydroxyphenyl)-1-methylethyl]amino]ethyl]phenyl]aminoacetic acid], the EC50 in data set [1] was > 100000 nM.

For the origin of these results see patent US6353025B1, “Phenylaminoalkylcarboxylic acid derivatives and pharmaceutical compositions comprising the same” (Kissei Pharmaceutical Co., Ltd., priority 1997, dated 2002).
